According to patent US8633232B2, “Compounds, compositions and methods of using same for modulating uric acid levels” (Ardea Biosciences, Inc., priority 2008, dated 2014):
pEC50: −log10 of the molar value.

Each molecule was assayed against T1, hURAT1 Transporter (Homo sapiens, UniProt Q96S37) (assay: Uric Acid Uptake Assay). Settings: HEK293/urat1 cells; C14 Uric Acid 40 μM; 10 minutes at room temperature.
T1 construct: Full-length human URAT1 gene (SLC22A12) was subcloned from plasmid pCMV6-XL5
T1 sequence (Q96S37 1-553): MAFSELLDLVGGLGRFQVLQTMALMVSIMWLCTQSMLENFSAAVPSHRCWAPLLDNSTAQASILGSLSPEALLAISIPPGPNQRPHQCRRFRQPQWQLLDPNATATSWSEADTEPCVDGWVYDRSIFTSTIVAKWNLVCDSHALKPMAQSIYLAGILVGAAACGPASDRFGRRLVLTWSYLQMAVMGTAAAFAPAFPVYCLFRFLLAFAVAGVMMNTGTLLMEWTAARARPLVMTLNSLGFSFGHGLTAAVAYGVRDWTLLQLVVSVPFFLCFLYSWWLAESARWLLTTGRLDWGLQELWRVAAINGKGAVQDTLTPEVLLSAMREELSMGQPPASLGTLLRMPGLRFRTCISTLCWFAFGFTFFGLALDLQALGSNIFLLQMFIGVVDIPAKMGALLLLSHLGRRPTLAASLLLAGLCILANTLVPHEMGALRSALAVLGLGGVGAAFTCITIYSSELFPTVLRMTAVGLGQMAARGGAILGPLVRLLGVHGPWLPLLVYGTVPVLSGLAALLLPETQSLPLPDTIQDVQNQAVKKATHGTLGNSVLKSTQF
Format: cell-based
From the text: Creation of Stable Cell Lines Expressing hURAT1 Transporter: Full-length human URAT1 gene (SLC22A12) was subcloned from plasmid pCMV6-XL5 (Origene) into eukaryotic expression plasmid pCMV6/Neo (Origene) using Not I restriction sites. Gene sequencing confirmed the sequence of hURAT1 as outlined in Genbank (Accession #NM_144585.2). HEK293 human embryonic kidney cells (ATCC#CRL-1573) were propagated in EMEM tissue culture medium as described by ATCC in an atmosphere of 5% CO2 and 95% air. Transfections of HEK293 cells with the pCMV6/Neo/URAT1 construct were performed using L2000 transfection reagent (Invitrogen) as described by the manufacturer. After 24 h the transfected cells were split into 10 cm tissue culture plates and grown for 1 day after which the medium was replaced with fresh growth medium containing G418 (Gibco) at 0.5 mg/ml final concentration. Drug-resistant colonies were selected after approximately 8 days and then tested for ^14C-uric acid transport activity. The HEK293/urat1 cells are plated on Poly-D-Lysine Coated 96-well Plates at a density of 75,000 cells per well.
Cells were grown overnight (20-26 hours) at 37° C. in an incubator. Plates were allowed to come to room temperature and media was washed out with one wash of […] of Wash Buffer (125 mM Na Gluconate, 10 mM Hepes ph 7.3). Compound or vehicle is added in assay buffer with C14 Uric Acid for a final concentration of 40 μM Uric Acid with a specific activity of 54 mCi/mmol. Assay Buffer is 125 mM Sodium Gluconate, 4.8 mM Potassium Gluconate, 1.2 mM Potassium phosphate, monobasic, 1.2 mM magnesium sulfate, 1.3 mM Ca Gluconate, 5.6 mM Glucose, 25 mM HEPES, pH 7.3. Plates were incubated at room temperature for 10 minutes then washed 3 times with 50 μl Wash Buffer and 3 times with 250 μl Wash Buffer. Microscint 20 Scintillation Fluid was added and plates were incubated overnight at 45° C. to equilibrate. Plates are then read on the TopCount Plate Reader and an EC50 value generated. (See Enomoto et al, Nature, 2002, 417, 447-451 and Anzai et al, J. Biol. Chem., 2004, 279, 45942-45950.).
Compounds prepared as described herein, were examined according to the procedure described above and EC50 values generated. […] (N/A means data not available).

pEC50	Structure (SMILES)
4.52 to 6.00	Nc1nnc(SCCCC(=O)O)n1-c1ccc(C2CC2)c2ccccc12
4.52 to 6.00	Cc1ccc(-n2c(SCC(=O)O)nnc2C(F)F)c2ccccc12
4.52 to 6.00	CCOC(=O)CSc1nncn1-c1ccc(C)c2ccc(C)cc12 [ethyl 2-(4-(4,7-dimethylnaphthalen-1-yl)-4H-1,2,4-triazol-3-ylthio)acetate]
< 4.52	Cc1ccc(-n2cnnc2SCC(=O)O)c2c1CCCC2
< 4.52	CC(C)(C)c1ccc(-n2c(SCC(=O)O)nnc2C(F)F)c(Cl)c1
6.00 to 9.00	CCc1ccc(-n2c(Br)nnc2SCC(=O)OC)c2ccccc12
6.00 to 9.00	CC(C)(Sc1nnc(C(F)(F)F)n1-c1ccc(C2CC2)c2ccccc12)C(=O)O [Example 9, 2-(4-(4-Cyclopropylnaphthalen-1-yl)-5-(trifluoromethyl)-4H-1,2,4-triazol-3-ylthio)-2-methylpropanoic acid]
4.52 to 6.00	CCOC(=O)CCSc1nnc(Br)n1-c1ccc(C2CC2)c2ccccc12 [ethyl 3-(5-bromo-4-(4-cyclopropylnaphthalen-1-yl)-4H-1,2,4-triazol-3-ylthio)propanoate]
4.52 to 6.00	Cc1ccc(-n2c(Br)nnc2SCC(=O)O)c2ccccc12
< 4.52	CCOC(=O)CSc1nncn1-c1ccc(C)c2c1CCCN2
4.52 to 6.00	O=C(O)CSc1nnc(C(F)(F)F)n1-c1cccc2ccccc12
< 4.52	Cc1nnc(SCC(=O)O)n1-c1ccccc1C(F)(F)F
< 4.52	Cc1nnc(SCC(=O)O)n1-c1ccc2c(c1)OCCO2
< 4.52	Cc1nnc(SCC(=O)O)n1-c1ccc(C(=O)O)cc1
6.00 to 9.00	CCOC(=O)CSc1nnc(Br)n1-c1ccc(C2CC2)c2ccccc12
< 4.52	Cc1nnc(SCC(=O)O)n1-c1ccc(C(F)(F)F)cc1
< 4.52	CCOC(=O)CSc1nnc(C(F)(F)F)n1-c1ccc(OC)c2c1CCCC2
4.52 to 6.00	CCc1ccc(-n2c(SCC(=O)O)nnc2C(F)F)c2ccccc12 [Example 4, 2-(5-(difluoromethyl)-4-(4-ethylnaphthalen-1-yl)-4H-1,2,4-triazol-3-ylthio)acetic acid]
< 4.52	Cc1nnc(SCC(=O)O)n1-c1ccc(Oc2ccccc2)cc1
4.52 to 6.00	CC(Sc1nnc(N)n1-c1ccc(C2CC2)c2ccccc12)C(=O)O (centres unmarked)
< 4.52	Cc1nnc(SCC(=O)O)n1-c1cccc2cccnc12
< 4.52	Cc1nnc(SCC(=O)O)n1-c1ccccc1Cl
< 4.52	Cc1ccc(-n2c(C)nnc2SCC(=O)O)cc1C

pEC50	Structure (SMILES)
6.00 to 9.00	CCc1ccc(-n2c(Br)nnc2SCC(=O)O)c2ccccc12
< 4.52	Cc1ccc2c(C)ccc(-n3cnnc3SCC(=O)O)c2c1 [Example 2, 2-(4-(4,7-Dimethylnaphthalen-1-yl)-4H-1,2,4-triazol-3-ylthio)acetic acid]
4.52 to 6.00	O=C(O)CSc1nnc(C(F)F)n1-c1ccc(C2CC2)c2ccccc12
4.52 to 6.00	COc1ccc2c(C3CC3)ccc(-n3c(Br)nnc3SCC(=O)O)c2c1
< 4.52	Cc1cccc(C)c1-n1c(C)nnc1SCC(=O)O
< 4.52	CCOC(=O)C(C)(C)Sc1nnc(N)n1-c1ccc(C2CC2)c2ccccc12 [ethyl 2-(5-amino-4-(4-cyclopropylnaphthalen-1-yl)-4H-1,2,4-triazol-3-ylthio)-2-methylpropanoate]
4.52 to 6.00	CCOC(=O)C(C)Sc1nnc(Br)n1-c1ccc(C2CC2)c2ccccc12 (centres unmarked)
6.00 to 9.00	Cc1ccc(-n2c(SCC(=O)O)nnc2C(F)(F)F)c2c1CCCC2
4.52 to 6.00	COC(=O)CSc1nnc(Br)n1-c1ccc(C2CC2)c2ccccc12 [Example 102, Methyl 2-(5-bromo-4-(4-cyclopropylnaphthalen-1-yl)-4H-1,2,4-triazol-3-ylthio)acetate]
< 4.52	CCCSc1nnc(N)n1-c1ccc(C2CC2)c2ccccc12
< 4.52	CCOC(=O)CSc1nnc(N)n1-c1ccc(C2CC2)c2ccccc12
6.00 to 9.00	CCOC(=O)C(C)(C)Sc1nnc(Br)n1-c1ccc(CC)c2ccccc12
< 4.52	O=C(O)CSc1nnc(Br)n1-c1cccc2c(OCC3CC3)cccc12
< 4.52	CCOC(=O)CSc1nnc(C(F)F)n1-c1ccc(OC)c2c1CCCC2
4.52 to 6.00	CCOC(=O)CSc1nncn1-c1ccc(C)c2c1CCCC2
4.52 to 6.00	CCc1ccc(-n2c(Br)nnc2SCC(=O)O)c2cc(OC)ccc12
< 4.52	COc1ccc(Cl)c(-n2c(Br)nnc2SCC(=O)O)c1
4.52 to 6.00	Cc1ccc(-n2c(SCC(N)=O)nnc2C(F)F)c2c1CCCC2
6.00 to 9.00	CCOC(=O)C(C)(C)Sc1nnc(Br)n1-c1ccc(C2CC2)c2ccccc12 [ethyl 2-(5-bromo-4-(4-cyclopropylnaphthalen-1-yl)-4H-1,2,4-triazol-3-ylthio)-2-methylpropanoate]
4.52 to 6.00	COc1ccc(-n2c(SCC(=O)O)nnc2C(F)F)c2c1CCCC2
< 4.52	Cc1cc(C)c(-n2cnnc2SCC(=O)O)c2c1CCCC2
< 4.52	CC(C)(C)c1ccc(-n2c(Br)nnc2SCC(=O)O)c(Cl)c1
< 4.52	COc1ccccc1-n1c(C)nnc1SCC(=O)O

pEC50	Structure (SMILES)
4.52 to 6.00	Cc1cc(C)c(-n2c(SCC(=O)O)nnc2C(F)(F)F)c2c1CCCC2 [Example 1A, 2-(4-(2,4-Dimethyl-5,6,7,8-tetrahydronaphthalen-1-yl)-5-(trifluoromethyl)-4H-1,2,4-triazol-3-ylthio)acetic acid]
< 4.52	CC(C)(C)OC(=O)C(C)(C)Sc1nnc(Br)n1-c1ccc(C2CC2)c2ccccc12 [Example 101, tert-Butyl 2-(5-bromo-4-(4-cyclopropylnaphthalen-1-yl)-4H-1,2,4-triazol-3-ylthio)-2-methylpropanoate]
< 4.52	O=C(O)CSc1nnc(Br)n1-c1cc(C(F)(F)F)ccc1Cl
< 4.52	CCOC(=O)CSc1nnc(C(F)F)n1-c1ccc(CC)c2ccccc12 [ethyl 2-(5-(difluoromethyl)-4-(4-ethylnaphthalen-1-yl)-4H-1,2,4-triazol-3-ylthio)acetate]
< 4.52	Cc1ccc(-n2c(C)nnc2SCC(=O)O)c(C)c1
4.52 to 6.00	CCOC(=O)CSc1nnc(CF)n1-c1ccc(C)c2c1CCCC2 [ethyl 2-(5-(fluoromethyl)-4-(4-methyl-5,6,7,8-tetrahydronaphthalen-1-yl)-4H-1,2,4-triazol-3-ylthio)acetate]
4.52 to 6.00	CCOC(=O)CCSc1nnc(N)n1-c1ccc(C2CC2)c2ccccc12 [ethyl 3-(5-amino-4-(4-cyclopropylnaphthalen-1-yl)-4H-1,2,4-triazol-3-ylthio)propanoate]
< 4.52	Cc1nnc(SCC(=O)O)n1-c1cccc(Cl)c1
< 4.52	Cc1ccc(-n2c(SCC(=O)O)nnc2C(F)F)c2c1NCCC2
4.52 to 6.00	CCOC(=O)C(C)Sc1nnc(N)n1-c1ccc(C2CC2)c2ccccc12 (centres unmarked)
4.52 to 6.00	CCOC(=O)CCCSc1nnc(N)n1-c1ccc(C2CC2)c2ccccc12
4.52 to 6.00	O=C(O)CSc1nnc(-c2ccccc2)n1-c1ccc(C2CC2)c2ccccc12
4.52 to 6.00	CCOC(=O)CCCSc1nnc(Br)n1-c1ccc(C2CC2)c2ccccc12
6.00 to 9.00	CC(Sc1nnc(Br)n1-c1ccc(C2CC2)c2ccccc12)C(=O)O (centres unmarked)
4.52 to 6.00	CCOC(=O)CSc1nnc(C(F)(F)F)n1-c1ccc(C)c2c1CCCC2
4.52 to 6.00	O=C(O)CSc1nnc(Br)n1-c1cccc2ccccc12
4.52 to 6.00	CCc1ccc(-n2c(CF)nnc2SCC(=O)O)c2ccccc12
4.52 to 6.00	CCOC(=O)CSc1nnc(-c2ccccc2)n1-c1ccc(C2CC2)c2ccccc12
< 4.52	CCOC(=O)CSc1nnc(C(F)F)n1-c1c(C)cc(C)c2ccccc12
< 4.52	Cc1nnc(SCC(=O)O)n1Cc1ccccc1
< 4.52	Cc1nnc(SCC(=O)O)n1-c1ccccc1F
< 4.52	COc1ccc(Cl)c(-n2c(SCC(=O)O)nnc2C(F)F)c1
